The term IC50 denotes the concentration needed to halve the response being measured. A low value points to greater potency in that assay. As usually defined, the Kd is the concentration at which binding is half-saturated. The low end stands for tighter binding, the high end for weaker binding.

Data set [1] deals with T1, PA-IL (Pseudomonas aeruginosa, UniProt Q05097). Kind of data set: SPR inhibition/competition assay of PA-IL binding to β-D-galactose-polymer chip. The procedure:
In order to determine the binding affinity of the precision glycooligomers to PA-IL, surface plasmon resonance (SPR) experiments were performed. At first, an inhibition/competition assay was carried out. The SPR chip was modified with a β-D-galactose-polymer and α-D-mannose-polymer as negative control (see Supporting Information File 1). In a first experiment, binding of PA-IL (1 µM) to the chip was determined and set as 100%. In a second set of experiments, binding of preincubated mixtures of PA-IL (1 µM) and glycooligomers at serial dilutions (400 µM to 0.1 µM) were measured. […] Plotting this concentration dependent decrease in binding against […], sigmoidal curves were obtained and fitted with the Hill equation. The inhibitory concentration at 50% binding (IC50) was derived for the different glycooligomers (Table 2).
SPR PA-IL inhibition/competition studies:
A sensor chip SA coated with streptavidin was conditioned with three consecutive injections of 100 µl 1 M NaCl and 50 mM NaOH in a flow rate of 100 µL/min. Then, biotinylated β-D-galactose-PAA (0.1 nM in HBS-EP buffer) was immobilized on flow cell 2 with HBS-EP buffer in a flow rate of 5 µL/min.
Biotinylated α-D-mannose-PAA with the same concentration was immobilized as reference on flow cell 1. Binding analyses were carried out with running buffer (HEPES 10 mM, NaCl 150 mM, CaCl2 10 mM, pH 7.4.) at a flow rate of 20 µl/min. The PA-IL binding of the glycooligomers AZO-Gal(1,3)-3, AZO-Gal(1,3,5)-5, EDS-Gal(1,3)-3, EDS-Gal(1,3,5)-5 and AZO-Man(1,3,5)-5 (as control) was examined.
1 µM Pa-IL was incubated with the specific substance at final concentrations of 400 µM, 100 µM, 50 µM, 25 µM, 10 µM, 1 µM and 0.1 µM, in running buffer for 60 minutes at room temperature.
45 µL of each sample were injected over both lanes whereas the binding signal on the reference cell (α-D-mannose-PAA) was subtracted from the β-D-galactose-PAA flow cell during the binding measurement. Each binding cycle consisted of an injection phase for 80 s followed by a 100 s dissociation phase. The chip was regenerated after each run with 100 mM D-galactose in running buffer. The response values were calculated by subtraction of the report point at the beginning of the sample injections (0 s) from the report point at the end of the dissociation phase ([…]). The binding signal obtained by the 1 µM Pa-IL solution in running buffer without inhibitor was set to 100 % binding. This sample was measured 2 times before and 2 times after each measuring cycle. The binding signals of the specific inhibitor was referred to Pa-IL and calculated for relative PA-Il binding in % of PA-IL. Each data point (concentration) represents the mean value (± SEM) of two measurements. The obtained data points for each concentration were plotted with Origin 8.5G and fit with Hill1 equation, allowing for the determination of IC50 values (the concentration of inhibitor that results from 50 % binding of PA-IL binding to β-D-galactose-PAA on the sensor chip).
The characteristic sigmoidal shape (see Figure S4) was fitted with the Hill equation to obtain the IC50 […]
where Start is the value at 100% binding and equals 100, End is the value where no binding is observed anymore and equals 0, x corresponds to the concentration and n describes the cooperativity. IC50 values describe the inhibitory potential of a ligand for a specific receptor which is no direct measure for the affinity of a ligand but can be related to the affinity of the ligand in a competitive experiment e.g. as we have performed with PA-IL and against β-D-galactose.

Data set [2] has as its target T1, PA-IL. Kind of data set: SPR direct binding assay, glycooligomers immobilized on chip, PA-IL flown over. The note with it: steady-state affinity model. The source says: In order to approach practical applications of a photoswitchable device that could modulate its binding affinity towards PA-IL lectins on demand, we were intrigued in the ability of our light-responsive systems to work when immobilized on a surface. To this end we attached the photoswitchable precision glycooligomers directly to the SPR chip and performed a second set of lectin binding experiments using SPR and measuring PA-IL binding on the chip. The glycooligomers were covalently linked to the chip via their terminal amine group and the simultaneous activation of the carboxyl-functionalized chip surface as N-hydroxysuccinimide (NHS) ester (see Supporting Information File 1). Successful functionalization was monitored by SPR. Photoswitching of the glycooligomers was realized either ex situ prior to surface functionalization or in situ by direct irradiation of the functionalized chip. The equilibrium constant KD was obtained by fitting the obtained binding values at the turning point between binding- and dissociation-curve with a steady-state affinity model (Biacore T100 Evaluation Software 2.0.3). In agreement with the previously determined IC50 values, all KD values are in the µM range.
Figure S5: Inhibition curves of controls, Azo-Man(1,3,5)-5 and β-methyl galactose.
SPR PA-IL direct binding studies
For direct binding studies, glycooligomers E-Azo-Gal(1,3)-3, E-Azo-Gal(1,3,5)-5, Azo-Gal(1,3)-3-PSS and Azo-Gal(1,3,5)-5-PSS were immobilized on Biacore CM5 sensor chips. Two PSS were additionally generated by irradiation of the corresponding E structure immobilized on the Biacore sensor chip with light at 360 nm (see irradiation section above for details). Immobilizations were performed by flowing a solution of 2 mM glycoligand for 5 minutes with 10 µL per minute over one flow cell, after activation of it with 0.4 M […] in water and 0.1 M NHS in water. Remaining active ester groups were capped by injection of 1 M ethanolamine. HBS-P (0.01 M HEPES pH 7.4, 0.15 M NaCl, 0.005% v/v Surfactant P20 in water) was used as running buffer. A second flow cell was immobilized as blank reference cell, by flowing 1 M ethanolamine over the cell after activation with 0.4 M EDS in water and 0.1 M NHS in water. Serial dilutions of PA-IL (25 µM, 10 µM, 5 µM, 1 µM, 0.1 µM and 0 µM) were then flown over the sensor chip at 25 °C with Hepes running buffer (HEPES 10 mM, NaCl 150 mM, CaCl2 10 mM, pH 7.4.). Binding of lectin was evaluated with Biacore T100 evaluation software, determining KD affinity constants by employing a steady state affinity model.
(1 picture or pasted object on this page, not shown here)

Data set [3] can be described thus: Photoisomerization, composition at photostationary state by UPLC. In kind it is physicochemical. The note with it: irradiation at 360 nm. The procedure:
The photochromic behavior of the newly synthesized AZO-glycooligomers was investigated by UV–vis absorption spectroscopy and ultraperformance liquid chromatography (UPLC). Aqueous solutions of Azo-Gal(1,3)-3 and Azo-Gal(1,3,5)-5 (the compounds were dissolved in the buffer used for the SPR measurements, see Supporting Information File 1 for the details) were irradiated at λ = 360 nm to induce the E → Z isomerization. […] The composition at the photostationary state (PSS) was analyzed by UPLC using integration of the UV signal at the wavelengths of the isosbestic points.

[4] abbreviates: no isomer state given (control structures), PA-IL 1 µM.

T1 sequence (Q05097 whole entry): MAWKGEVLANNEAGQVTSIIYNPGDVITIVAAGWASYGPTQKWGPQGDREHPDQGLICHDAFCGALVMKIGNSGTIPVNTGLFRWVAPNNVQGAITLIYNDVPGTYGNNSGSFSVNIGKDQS

With `CC(=O)NCCN(CCNC(=O)CCC(=O)NCc1ccc(/N=N/c2ccc(C(=O)NCCN(CCNC(=O)CCC(=O)NCc3ccc(/N=N/c4ccc(C(=O)NCCN(CCNC(=O)CCC(=O)NCCN)C(=O)CCc5cn(CCO[C@@H]6O[C@H](CO)[C@H](O)[C@H](O)[C@H]6O)nn5)cc4)cc3)C(=O)CCc3cn(CCO[C@@H]4O[C@H](CO)[C@H](O)[C@H](O)[C@H]4O)nn3)cc2)cc1)C(=O)CCc1cn(CCO[C@@H]2O[C@H](CO)[C@H](O)[C@H](O)[C@H]2O)nn1` [AZO-Gal(1,3,5)-5], on PA-IL [1] (E-isomer, PA-IL 1 µM preincubated with glycooligomer 400 µM to 0.1 µM), the half-maximal inhibitory concentration (IC50) was 3.4 ± 0.4 µM. For the same molecule, the IC50 at PA-IL [1] (PSS: photostationary state @ 360 nm, PA-IL 1 µM preincubated with glycooligomer 400 µM to 0.1 µM) turned out to be 4.1 ± 1.3 µM. For the same molecule, at PA-IL [2] (E-form immobilized on chip, 25 °C), binding was put at a Kd of 3.3 ± 0.3 µM. The Kd at PA-IL [2] (PSS @ 360 nm, ex situ irradiation before immobilization) worked out at 7.4 ± 0.9 µM. At PA-IL [2] (PSS @ 360 nm, irradiation on chip), this molecule showed a Kd of 3.2 ± 0.9 µM. Moreover, in data set [3] (UPLC), the “E,E-isomer that did not isomerize at PSS” value is reported as 10%, the “E,Z isomer at PSS” value is recorded as 10%, the “Z,E isomer at PSS” value was determined as 10% and the “Z,Z-isomer at PSS” value was 70%. In addition, in data set [3] (buffer solution, from isomer composition), the “total amount of Z-azobenzenes in the PSS mixture” value is 80%.

As for `CC(=O)NCCN(CCNC(=O)CCC(=O)NCc1ccc(/N=N/c2ccc(C(=O)NCCN(CCNC(=O)CCC(=O)NCc3ccc(/N=N/c4ccc(C(=O)NCCN(CCNC(=O)CCC(=O)NCCN)C(=O)CCc5cn(CCO[C@H]6O[C@H](CO)[C@@H](O)[C@H](O)[C@@H]6O)nn5)cc4)cc3)C(=O)CCc3cn(CCO[C@H]4O[C@H](CO)[C@@H](O)[C@H](O)[C@@H]4O)nn3)cc2)cc1)C(=O)CCc1cn(CCO[C@H]2O[C@H](CO)[C@@H](O)[C@H](O)[C@@H]2O)nn1` [AZO-Man(1,3,5)-5], the “binding to PA-IL (in words)” value on PA-IL [1] (SPR inhibition/competition assay) is “does not show any binding”. Moreover, the IC50 entry at PA-IL [1] (setting [4]) is given as “n.b.^b”.

At PA-IL [1] (IC50, no isomer state given (control structures), PA-IL 1 µM), `CC(=O)NCCN(CCNC(=O)CCC(=O)NCCOCCOCCNC(=O)CCC(=O)NCCN(CCNC(=O)CCC(=O)NCCN)C(=O)CCc1cn(CCO[C@@H]2O[C@H](CO)[C@H](O)[C@H](O)[C@H]2O)nn1)C(=O)CCc1cn(CCO[C@@H]2O[C@H](CO)[C@H](O)[C@H](O)[C@H]2O)nn1` [EDS-Gal(1,3)-3] came in with a concentration for half-maximal inhibition (IC50) of 3.2 ± 0.2 µM.

Regarding `CC(=O)NCCN(CCNC(=O)CCC(=O)NCCOCCOCCNC(=O)CCC(=O)NCCN(CCNC(=O)CCC(=O)NCCOCCOCCNC(=O)CCC(=O)NCCN(CCNC(=O)CCC(=O)NCCN)C(=O)CCc1cn(CCO[C@@H]2O[C@H](CO)[C@H](O)[C@H](O)[C@H]2O)nn1)C(=O)CCc1cn(CCO[C@@H]2O[C@H](CO)[C@H](O)[C@H](O)[C@H]2O)nn1)C(=O)CCc1cn(CCO[C@@H]2O[C@H](CO)[C@H](O)[C@H](O)[C@H]2O)nn1` [EDS-Gal(1,3,5)-5], on PA-IL [1] (setting [4]), the IC50 amounted to 2 ± 0.6 µM.

Take `CC(=O)NCCN(CCNC(=O)CCC(=O)NCc1ccc(/N=N/c2ccc(C(=O)NCCN(CCNC(=O)CCC(=O)NCCN)C(=O)CCc3cn(CCO[C@@H]4O[C@H](CO)[C@H](O)[C@H](O)[C@H]4O)nn3)cc2)cc1)C(=O)CCc1cn(CCO[C@@H]2O[C@H](CO)[C@H](O)[C@H](O)[C@H]2O)nn1` [AZO-Gal(1,3)-3]: the half-maximal inhibitory concentration (IC50) amounted to 5.7 ± 1.7 µM on PA-IL [1] (IC50, E-isomer, PA-IL 1 µM preincubated with glycooligomer 400 µM to 0.1 µM) and 9.4 ± 0.1 µM at PA-IL [1] (IC50, PSS: photostationary state @ 360 nm, PA-IL 1 µM preincubated with glycooligomer 400 µM to 0.1 µM). Besides, the Kd at PA-IL [2] (KD, E-form immobilized on chip, 25 °C) was 1.7 ± 0.1 µM; at PA-IL [2] (KD, PSS @ 360 nm, ex situ irradiation before immobilization) it was 2.4 ± 0.1 µM; on PA-IL [2] (KD, PSS @ 360 nm, irradiation on chip), 1.8 ± 0.1 µM. Moreover, the “Z-azobenzene in the PSS solution” value in data set [3] (buffer solution) was determined as 78%.

The values are drawn from article PMC4143111, “Photoswitchable precision glycooligomers and their lectin binding” (Beilstein Journal of Organic Chemistry, 2014).
